Assay results as given in patent US12162893B2 (Erasca, Inc., priority 2020, dated 2024).

target: T1, mutant G12C K-RAS (Homo sapiens, UniProt P01116, G12C); assay: covalent adduct formation (CAF) with mutant G12C K-RAS; format: binding; details: Table 6; 10 μM, 1 h
T1 construct: made in house; host or cells: E. coli BL21
Experimental: Embodiments disclosed herein are further illustrated by the following examples in Tables 1-4 and the Examples hereinbelow. The Tables indicate the compound number, structure, the observed mass spectral molecular weight peak, and covalent adduct formation (CAF) with a mutant G12C K-RAS after 60 minutes at a concentration of 10 micromolar.

SMILES | % CAF @ 10 μM,1 h
C=CC(=O)N1C[C@H](C)N(c2nc(=O)n3c4c(c(-c5ccc(F)cc5F)c(Cl)cc24)OC[C@H]3CCCN2CCN(C)CC2)C[C@H]1C [Example 264, (3R)-7-((2S,5R)-4-acryloyl-2,5-dimethylpiperazin-1-yl)-9-chloro-10-(2,4-difluorophenyl)-3-(3-(4-methylpiperazin-1-yl)propyl)-2,3-dihydro-5H-[1,4]oxazino[2,3,4-ij]quinazolin-5-one] | 97.4%
C=CC(=O)N1C[C@H](C)N(c2nc(=O)n3c4c(c(-c5ccc(F)cc5F)c(Cl)cc24)OC[C@@H]3CCCN2C[C@@H]3C[C@H]2CO3)C[C@H]1C [Example 266, (3S)-3-(3-((1S,4S)-2-oxa-5-azabicyclo[2.2.1]heptan-5-yl)propyl)-7-((2S,5R)-4-acryloyl-2,5-dimethylpiperazin-1-yl)-9-chloro-10-(2,4-difluorophenyl)-2,3-dihydro-5H-[1,4]oxazino[2,3,4-ij]quinazolin-5-one] | 59.2%
C=CC(=O)N1C[C@H](C)N(c2nc(=O)n3c4c(c(-c5ccc(F)cc5F)c(Cl)cc24)OC[C@H]3Cn2ccnc2)C[C@H]1C [Example 267, (3R)-3-((1H-imidazol-1-yl)methyl)-7-((2S,5R)-4-acryloyl-2,5-dimethylpiperazin-1-yl)-9-chloro-10-(2,4-difluorophenyl)-2H-[1,4]oxazino[2,3,4-ij]quinazolin-5(3H)-one] | 13.6%
C=CC(=O)N1C[C@H](C)N(c2nc(=O)n3c4c(c(-c5ccc(F)cc5F)c(Cl)cc24)OC[C@H]3CN2CCS(=O)(=O)CC2)C[C@H]1C [Example 268, (3R)-7-((2S,5R)-4-acryloyl-2,5-dimethylpiperazin-1-yl)-9-chloro-10-(2,4-difluorophenyl)-3-((1,1-dioxidothiomorpholino)methyl)-2H-[1,4]oxazino[2,3,4-ij]quinazolin-5(3H)-one] | 68%
C=CC(=O)N1C[C@H](C)N(c2nc(=O)n3c4c(c(-c5ccc(F)cc5F)c(Cl)cc24)OC[C@@H]3CN2CCS(=O)(=O)CC2)C[C@H]1C [Example 269, (3S)-7-((2S,5R)-4-acryloyl-2,5-dimethylpiperazin-1-yl)-9-chloro-10-(2,4-difluorophenyl)-3-((1,1-dioxidothiomorpholino)methyl)-2H-[1,4]oxazino[2,3,4-ij]quinazolin-5(3H)-one] | 94.6%
C=CC(=O)N1C[C@H](C)N(c2nc(=O)n3c4c(c(-c5ccc(F)cc5F)c(Cl)cc24)OC[C@H]3CCCN2C[C@@H]3C[C@H]2CO3)C[C@H]1C [Example 270, (3R)-3-(3-((1S,4S)-2-oxa-5-azabicyclo[2.2.1]heptan-5-yl)propyl)-7-((2S,5R)-4-acryloyl-2,5-dimethylpiperazin-1-yl)-9-chloro-10-(2,4-difluorophenyl)-2H-[1,4]oxazino[2,3,4-ij]quinazolin-5(3H)-one] | 96.4%
C=CC(=O)N1C[C@H](C)N(c2nc(=O)n3c4c(c(-c5ccc(F)cc5F)c(Cl)cc24)OC[C@H]3CCCN2CCC(F)(F)C2)C[C@H]1C [Example 271, (3R)-7-((2S,5R)-4-acryloyl-2,5-dimethylpiperazin-1-yl)-9-chloro-10-(2,4-difluorophenyl)-3-(3-(3,3-difluoropyrrolidin-1-yl)propyl)-2,3-dihydro-5H-[1,4]oxazino[2,3,4-ij]quinazolin-5-one] | 93.6%
C=CC(=O)N1C[C@H](C)N(c2nc(=O)n3c4c(c(-c5ccc(F)cc5F)c(Cl)cc24)OC[C@H]3CCCn2ccnc2)C[C@H]1C [Example 272, (3R)-3-(3-(1H-imidazol-1-yl)propyl)-7-((2S,5R)-4-acryloyl-2,5-dimethylpiperazin-1-yl)-9-chloro-10-(2,4-difluorophenyl)-2,3-dihydro-5H-[1,4]oxazino[2,3,4-ij]quinazolin-5-one] | 89.4%
C=CC(=O)N1C[C@H](C)N(c2nc(=O)n3c4c(c(-c5ccc(F)cc5F)c(Cl)cc24)OC[C@H]3CCCN2CC(C(=O)NC3CC3)C2)C[C@H]1C [Example 273, 1-(3-((3R)-7-((2S,5R)-4-acryloyl-2,5-dimethylpiperazin-1-yl)-9-chloro-10-(2,4-difluorophenyl)-5-oxo-2,3-dihydro-5H-[1,4]oxazino[2,3,4-ij]quinazolin-3-yl)propyl)-N-cyclopropylazetidine-3-carboxamide] | 71.8%
C=CC(=O)N1C[C@H](C)N(c2nc(=O)n3c4c(c(-c5ccc(F)cc5F)c(Cl)cc24)OC[C@@H]3CN2CCN(C)CC2=O)C[C@H]1C [Example 274, (3S)-7-((2S,5R)-4-acryloyl-2,5-dimethylpiperazin-1-yl)-9-chloro-10-(2,4-difluorophenyl)-3-((4-methyl-2-oxopiperazin-1-yl)methyl)-2,3-dihydro-5H-[1,4]oxazino[2,3,4-ij]quinazolin-5-one] | 67%
C=CC(=O)N1CCN(c2nc(=O)n3c4c(c(-c5ccc(F)cc5F)c(Cl)cc24)OCC3)[C@@H](C)C1 [Example 275, 7-((S)-4-acryloyl-2-methylpiperazin-1-yl)-9 chloro-10-(2,4-difluorophenyl)-2,3-dihydro-5H-[1,4]oxazino[2,3,4-ij]quinazolin-5-one] | 89.6%

Next, values leading:

% CAF @ 10 μM,1 h | SMILES
73.5% | C=CC(=O)N1C[C@H](C)N(c2nc(=O)n3c4c(c(-c5ccc(F)cc5F)c(Cl)cc24)OC[C@@H]3COC2CCN(C)CC2)C[C@H]1C [Example 276, (3S)-7-((2S,5R)-4-acryloyl-2,5-dimethylpiperazin-1-yl)-9-chloro-10-(2,4-difluorophenyl)-3-(((1-methylpiperidin-4-yl)oxy)methyl)-2H-[1,4]oxazino[2,3,4-ij]quinazolin-5(3H)-one]
76.9% | C=CC(=O)N1C[C@H](C)N(c2nc(=O)n3c4c(c(-c5ccc(F)cc5F)c(Cl)cc24)OC[C@@H]3COC[C@H]2CCCN2C)C[C@H]1C [Example 277, (3S)-7-((2S,5R)-4-acryloyl-2,5-dimethylpiperazin-1-yl)-9-chloro-10-(2,4-difluorophenyl)-3-((((R)-1-methylpyrrolidin-2-yl)methoxy)methyl)-2H-[1,4]oxazino[2,3,4-ij]quinazolin-5(3H)-one]
98.3% | C=CC(=O)N1C[C@H](C)N(c2nc(=O)n3c4c(c(-c5ccc(F)cc5F)c(Cl)cc24)OC[C@H]3CCCN2CCC(C(=O)NC3CC3)CC2)C[C@H]1C [Example 278]
97.5% | C=CC(=O)N1C[C@H](C)N(c2nc(=O)n3c4c(c(-c5ccc(F)cc5F)c(Cl)cc24)OC[C@H]3CCCN2CC(F)C2)C[C@H]1C [Example 279, (3R)-7-((2S,5R)-4-acryloyl-2,5-dimethylpiperazin-1-yl)-9-chloro-10-(2,4-difluorophenyl)-3-(3-(3-fluoroazetidin-1-yl)propyl)-2,3-dihydro-5H-[1,4]oxazino[2,3,4-ij]quinazolin-5-one]
57.5% | C=CC(=O)N1C[C@H](C)N(c2nc(=O)n3c4c(c(-c5ccc(F)cc5F)c(Cl)cc24)OC[C@H]3CN2CCN(C)CC2=O)C[C@H]1C [Example 280, (3R)-7-((2S,5R)-4-acryloyl-2,5-dimethylpiperazin-1-yl)-9-chloro-10-(2,4-difluorophenyl)-3-((4-methyl-2-oxopiperazin-1-yl)methyl)-2H-[1,4]oxazino[2,3,4-ij]quinazolin-5(3H)-one]
